# From US9441016B2, “Complete genome sequence of the methanogen Methanobrevibacter ruminantium” (Pastoral Greenhouse Gas Research Ltd., priority 2009, dated 2016)
# Experiments:
# M. ruminantium M1 [1] = experiment: Effect of the lytic enzyme PeiR on M1 growth in vitro (culture density, methane); format: cell-based, Methanobrevibacter ruminantium
# Protocol: M1 was grown in medium RM02 in anaerobic culture tubes (16 mm internal diameter, 18 mm outer diameter, 150 mm long; Bellco Glass, Vineland, N.J., USA), essentially as described by Balch and Wolfe, 1976. The mineral salts base of RM02 contained (per liter of medium): 1.4 g of KH2PO4, 0.6 g of (NH4)2SO4, 1.5 g of KCl, 1 ml trace element solution […] et al., 1983), 1 ml of selenite/tungstate solution ([…] and […], 1984) and 4 drops of 0.1% (w/v) resazurin solution. This solution was mixed and then boiled under O2-free 100% CO2, before being cooled in an ice bath while it was bubbled with 100% CO2. Once the medium was cool, 4.2 g of NaHCO3 and 0.5 g of L-cysteine.HCl.H2O was added per liter. […] In the experiments testing the effects of PeiR addition, the culture densities were mathematically normalised to an OD600 of 0.1 at the time the additions were made, and all other readings corrected by the same ratio. […] Methane was measured by gas chromatography, taking a 0.3 ml sample from the culture headspace, at the pressure in the culture tube, and injecting it into an Aerograph 660 (Varian Associates, Palo Alto, Calif., USA) fitted with a Porapak Q 80/100 mesh column (Waters Corporation, Milford, Mass., USA) and a thermal conductivity detector operated at 100° C. […]
# [2] = system: Mbb. ruminantium A1Ao ATP synthase; experiment: ATP hydrolysis by A1Ao ATP synthase with inhibitors (inorganic phosphate assay); format: biochemical, Methanobrevibacter ruminantium; conditions: in high concentrations
# Excerpt: Two enzyme preparations were studied. Purified ATP synthase from BL21 and recombinant enzyme expressed in E. coli DK8 membranes. Purified […] ATP synthase was examined for ATPase activity using the inorganic phosphate assay. […] TBT is a well characterized Fo and Ao channel inhibitor of ATP synthases. To examine the coupling ion used by the Mbb. ruminantium […] ATP synthase, the effect of amiloride, a known Na^+-coupled V-type ATPase and Na^+ channel inhibitor was also examined. […] E. coli DK8 (Δatp) inverted membranes containing the recombinant […]-ATPase were used to determine the effects of the inhibitors TBT (200 μM) and DCCD (250 μM) at different pH values. ATPase activity was measured in presence of 130 mM Na^+ (FIG. 30A) and in absence of Na^+ (FIG. 30B). After preincubation with the inhibitor for 20 min at room temperature ([…]), the reaction was started at 39° C. by addition of Na2-ATP or Tris-ATP to a final concentration of 2.5 mM. 0.5 mg inverted membrane vesicles was used in each end-point assay. […] FIGS. 30A and 30B). […] FIG. 30C). Amiloride inhibition of ATP hydrolysis of the Mbb. ruminantium […] ATP synthase was evaluated next. […] FIG. 30D). […] FIG. 31A). Amiloride inhibition of ATP hydrolysis of purified recombinant Mbb. ruminantium […] ATP synthase was further tested in DK8 and native membranes. […] FIG. 31B).
# [3] = molecular target: 3-hydroxy-3-methylglutaryl-CoA reductase (HMGR) (Methanobrevibacter ruminantium, UniProt D3E332); experiment: HMGR activity assay measuring oxidation of NADPH; format: biochemical; conditions: for Km: substrate of HMGR, assays at 37° C, pH 6.5
# M. ruminantium M1 [4] = experiment: Stimulation of growth of M1 by alcohols; format: cell-based, Methanobrevibacter ruminantium; conditions: for culture density (OD600 nm): M1 grown on H2, compared to H2 alone
# Protocol: M1 was grown in medium RM02 in anaerobic culture tubes (16 mm internal diameter, 18 mm outer diameter, 150 mm long; Bellco Glass, Vineland, N.J., USA), essentially as described by Balch and Wolfe, 1976. The mineral salts base of RM02 contained (per liter of medium): 1.4 g of KH2PO4, 0.6 g of (NH4)2SO4, 1.5 g of KCl, 1 ml trace element solution […] et al., 1983), 1 ml of selenite/tungstate solution ([…] and […], 1984) and 4 drops of 0.1% (w/v) resazurin solution. This solution was mixed and then boiled under O2-free 100% CO2, before being cooled in an ice bath while it was bubbled with 100% CO2. Once the medium was cool, 4.2 g of NaHCO3 and 0.5 g of L-cysteine.HCl.H2O was added per liter. The medium was dispensed into the culture tubes while being gassed with 100% CO2, at 9.5 ml of medium per tube, and the tubes sealed with blue butyl septum stoppers and aluminium seals (Bellco), with a headspace of 100% CO2. These tubes were sterilised by autoclaving for 20 min at 121° C. Before use, the tubes were stored in the dark for at least 24 h. Sodium acetate (20 mM final conc.), sodium formate (60 mM final conc.), coenzyme M (10 μM final conc.), and vitamin-supplemented clarified rumen fluid were added to sterile media, before inoculation with 0.5 ml of an actively growing culture of M. ruminantium, then gassed with H2 plus CO2 (4:1) to 180 kPa overpressure. In some experiments, the formate was omitted, and alcohols were added, as noted in the experimental descriptions accompanying the results. The culture tubes were incubated on their sides, at 39° C. in the dark, on a platform shaken at 200 rpm. Growth of M1 was followed by measuring the culture density at 600 nm by inserting the tubes directly into an Ultrospec 1100 pro UV/Vis spectrophotometer (Amersham Biosciences, Little Chalfont, Buckinghamshire, UK). […] In the experiments testing the effects of PeiR addition, the culture densities were mathematically normalised to an OD600 of 0.1 at the time the additions were made, and all other readings corrected by the same ratio. This was done to remove the effect of lack of absolute synchronicity between cultures, a common phenomenon when culturing methanogens. This normalisation was not done for experiments testing the utilisation of alcohols. Methane was measured by gas chromatography, taking a 0.3 ml sample from the culture headspace, at the pressure in the culture tube, and injecting it into an Aerograph 660 (Varian Associates, Palo Alto, Calif., USA) fitted with a Porapak Q 80/100 mesh column (Waters Corporation, Milford, Mass., USA) and a thermal conductivity detector operated at 100° C. The column was operated at room temperature with N2 as the carrier gas at 12 cm^3/min.
smiles,measurement,setting,value
ClC(Cl)Cl [Chloroform],methane yield,M. ruminantium M1 [1]; 0.1 ml added to 10 ml culture at mid-exponential phase,similarly reduced methane yield
same,culture density,"M. ruminantium M1 [1]; 0.1 ml added to 10 ml culture, compared with PeiR",decrease in culture density was less
C(=NC1CCCCC1)=NC1CCCCC1 [DCCD],"ATP hydrolysis activity, sensitivity to inhibitor",[2],sensitive
CC(C)(CO[P@@](=O)(O)O[P@@](=O)(O)OC[C@H]1O[C@@H](n2cnc3c(N)ncnc32)[C@H](O)[C@@H]1OP(=O)(O)O)[C@@H](O)C(=O)NCCC(=O)NCCSC(=O)C[C@@](C)(O)CC(=O)O [HMG-CoA],Km,[3],12.4 ± 1.83 µM
NC(=O)C1=CN([C@@H]2O[C@H](COP(=O)(O)OP(=O)(O)OC[C@H]3O[C@@H](n4cnc5c(N)ncnc54)[C@H](OP(=O)(O)O)[C@@H]3O)[C@@H](O)[C@H]2O)C=CC1 [NADPH],Km,[3],165 ± 35 µM
"CCC[CH2][Sn]([CH2]CCC)[CH2]CCC [TBT, tributylin]","ATP hydrolysis activity, sensitivity to inhibitor",[2],sensitive
N=C(N)NC(=O)c1nc(Cl)c(N)nc1N [amiloride],"ATP hydrolysis activity, sensitivity to inhibitor",[2],sensitive
CCO [ethanol],growth,"M. ruminantium M1 [4]; 20 mM, M1 grown on H2",some inhibition of growth
same,culture density (OD600 nm),M. ruminantium M1 [4]; 5 or 10 mM,increase in culture density
same,growth,M. ruminantium M1 [4]; no H2 added,No growth occurred
same,methane formation,M. ruminantium M1 [4]; no H2 added,no methane was formed
CC(C)O [isopropanol],stimulation of growth,"M. ruminantium M1 [4]; 5 to 20 mM, M1 grown on H2",no stimulation
same,growth,M. ruminantium M1 [4]; no H2 added,No growth occurred
same,methane formation,M. ruminantium M1 [4]; no H2 added,no methane was formed
"CC[C@H](C)C(=O)O[C@H]1C[C@@H](C)C=C2C=C[C@H](C)[C@H](CC[C@@H]3C[C@@H](O)CC(=O)O3)[C@H]21 [lovastatin, reference compound]",Ki,[3],8.5 ± 1.1 µM
CO [methanol],culture density (OD600 nm),M. ruminantium M1 [4]; 20 mM,increase in culture density
same,growth,M. ruminantium M1 [4]; no H2 added,No growth occurred
same,methane formation,M. ruminantium M1 [4]; no H2 added,no methane was formed
"CCC(C)(C)C(=O)O[C@H]1C[C@@H](C)C=C2C=C[C@H](C)[C@H](CC[C@@H]3C[C@@H](O)CC(=O)O3)[C@H]21 [simvastatin, reference compound]",Ki,[3],3.7 ± 0.65 µM
